We go through seven compounds from patent US20230072683A1, “PYRIDO-PYRIMIDIN DERIVATIVES AND PHARMACEUTICAL COMPOSITION, FOR USE IN PREVENTING OR TREATING PI3 KINASE RELATED DISEASES, COMPRISING SAME AS ACTIVE INGREDIENT” (BORYUNG PHARMACEUTICAL CO., LTD, priority 2019, published 2023).

Experiment [1] addresses PI3K-δ (PI3K(p1108/p857) (h)) (Homo sapiens, UniProt O00329). Briefly: Evaluation of inhibitory activity against PI3K-δ (HTRF kinase assay). It is filed as biochemical. The settings on record: for inhibition at 0.01 µM: compound concentration 0.01 μM, read-out: EXP_VALUE(% Inhibition) PI3K-δ 0.01 μM; for inhibition at 0.1 µM: compound concentration 0.1 μM, read-out: EXP_VALUE(% Inhibition) PI3K-δ 0.1 μM. The essentials: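 HTRF read-out (665/620 nm ratio ×10000) used Eu-labelled anti-GST, GST-tagged GRP1 PH domain and streptavidin-allophycocyanin after EDTA/PIP3 stop.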

For experiment [2], the target named is DNA-PK(h) (Homo sapiens, UniProt P78527). Briefly: Evaluation of inhibitory activity against DNA-PK (HTRF kinase assay, GST-cMyc-p53 substrate). Conditions: for inhibition at 0.01 µM: compound concentration 0.01 μM, read-out: EXP_VALUE(% Inhibition) DNA-PK(h) 0.01 μM; for inhibition at 0.1 µM: compound concentration 0.1 μM, read-out: EXP_VALUE(% Inhibition) DNA-PK(h) 0.1 μM. It is filed as biochemical. In a few lines:
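Human DNA-PK with 50 μM GST-cMyc-p53 substrate; reaction started with Mg/ATP, run 30 min at room temperature, stopped with EDTA. Phospho-Ser15 p53 detected by HTRF (Eu anti-phospho-Ser15, d2 anti-GST), signal = 10000×(Em 665/Em 620).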

Chain of PI3K-δ (PI3K(p1108/p857) (h)) (O00329 whole entry, the tested form may be a part): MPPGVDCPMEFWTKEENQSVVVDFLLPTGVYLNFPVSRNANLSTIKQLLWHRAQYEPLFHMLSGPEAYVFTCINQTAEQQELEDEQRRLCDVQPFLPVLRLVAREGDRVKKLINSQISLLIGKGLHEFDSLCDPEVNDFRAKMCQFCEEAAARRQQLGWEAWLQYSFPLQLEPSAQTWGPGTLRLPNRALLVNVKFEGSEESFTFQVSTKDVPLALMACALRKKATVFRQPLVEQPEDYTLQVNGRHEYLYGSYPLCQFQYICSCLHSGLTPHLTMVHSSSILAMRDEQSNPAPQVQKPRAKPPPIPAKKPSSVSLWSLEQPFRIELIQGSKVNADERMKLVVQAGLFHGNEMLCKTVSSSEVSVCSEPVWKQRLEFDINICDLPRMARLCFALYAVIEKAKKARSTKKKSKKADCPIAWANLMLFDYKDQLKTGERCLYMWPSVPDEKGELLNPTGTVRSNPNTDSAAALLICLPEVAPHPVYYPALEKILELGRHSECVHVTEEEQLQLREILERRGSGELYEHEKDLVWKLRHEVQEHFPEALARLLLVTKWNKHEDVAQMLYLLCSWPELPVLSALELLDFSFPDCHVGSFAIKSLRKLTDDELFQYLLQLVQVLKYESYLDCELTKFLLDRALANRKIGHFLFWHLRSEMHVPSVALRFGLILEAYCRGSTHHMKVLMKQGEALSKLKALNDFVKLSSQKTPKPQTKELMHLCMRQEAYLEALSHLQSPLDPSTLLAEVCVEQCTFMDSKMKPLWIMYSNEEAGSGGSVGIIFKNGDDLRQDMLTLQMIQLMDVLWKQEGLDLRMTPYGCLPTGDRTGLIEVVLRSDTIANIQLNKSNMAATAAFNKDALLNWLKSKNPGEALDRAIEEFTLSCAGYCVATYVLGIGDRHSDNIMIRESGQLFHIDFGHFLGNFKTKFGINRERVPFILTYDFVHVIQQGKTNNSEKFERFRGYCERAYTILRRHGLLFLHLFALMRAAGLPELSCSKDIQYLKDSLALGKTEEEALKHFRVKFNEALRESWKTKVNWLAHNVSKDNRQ
Chain of PI3K-δ (PI3K(p1108/p857) (h)) (P27986 whole entry partner, the tested form may be a part): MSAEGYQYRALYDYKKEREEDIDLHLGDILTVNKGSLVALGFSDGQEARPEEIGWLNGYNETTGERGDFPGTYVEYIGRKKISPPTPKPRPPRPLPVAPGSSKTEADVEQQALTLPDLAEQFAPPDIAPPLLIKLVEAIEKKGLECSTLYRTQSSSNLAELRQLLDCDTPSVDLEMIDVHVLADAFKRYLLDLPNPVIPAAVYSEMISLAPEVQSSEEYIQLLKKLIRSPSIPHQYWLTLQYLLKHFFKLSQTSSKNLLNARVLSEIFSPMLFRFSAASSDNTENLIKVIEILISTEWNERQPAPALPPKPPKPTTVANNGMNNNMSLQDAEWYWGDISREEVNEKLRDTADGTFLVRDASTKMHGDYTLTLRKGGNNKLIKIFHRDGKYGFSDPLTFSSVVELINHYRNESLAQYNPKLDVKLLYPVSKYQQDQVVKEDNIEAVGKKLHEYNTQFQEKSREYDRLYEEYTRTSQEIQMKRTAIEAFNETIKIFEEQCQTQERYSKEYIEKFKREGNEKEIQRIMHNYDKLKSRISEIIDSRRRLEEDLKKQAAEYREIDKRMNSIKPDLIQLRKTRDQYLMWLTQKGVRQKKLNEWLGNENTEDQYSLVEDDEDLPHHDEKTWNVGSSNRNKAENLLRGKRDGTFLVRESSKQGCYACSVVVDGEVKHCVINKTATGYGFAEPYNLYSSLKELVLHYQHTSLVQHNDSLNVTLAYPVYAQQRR

Regarding `C[C@H](Nc1ncnc2[nH]ccc(=O)c12)c1c(Cl)c2cccc(N3CCCC3)c2c(=O)n1-c1ccccc1` [Example 252, (S)-4-((1-(4-chloro-1-oxo-2-phenyl-8-(pyrrolidin-1-yl)-1,2-dihydroisoquinolin-3-yl)ethyl)amino)pyrido[2,3-d]pyrimidin-5(8H)-one], in experiment [1], the inhibition at 0.01 µM was found to be 53% and the inhibition at 0.1 µM was found to be 97%. In experiment [2], the inhibition at 0.01 µM was 4% and the inhibition at 0.1 µM was 42%.
Turning to `C[C@H](Nc1ncnc2[nH]ccc(=O)c12)c1c(Cl)c2cccc(-c3ccc4c(c3)OCCO4)c2c(=O)n1-c1ccccc1` [Example 253, (S)-4-((1-(4-chloro-8-(2,3-dihydrobenzo[b][1,4]dioxin-6-yl)-1-oxo-2-phenyl-1,2-dihydroisoquinolin-3-yl)ethyl)amino)pyrido[2,3-d]pyrimidin-5(8H)-one], in experiment [1], the inhibition at 0.01 µM was found to be 105% and the inhibition at 0.1 µM was determined as 102%. For the same compound, in experiment [2], the inhibition at 0.01 µM stood at 78% and the inhibition at 0.1 µM was 97%.
For the compound `C[C@H](Nc1ncnc2[nH]ccc(=O)c12)c1c(Cl)c2cccc(-c3ccc(-c4ccccc4)cc3)c2c(=O)n1-c1ccccc1` [Example 254, (S)-4-((1-(8-([1,1′-biphenyl]-4-yl)-4-chloro-1-oxo-2-phenyl-1,2-dihydroisoquinolin-3-yl)ethyl)amino)pyrido[2,3-d]pyrimidin-5(8H)-one], in experiment [1], the inhibition at 0.01 µM is 96% and the inhibition at 0.1 µM amounted to 110%. Moreover, in experiment [2], the inhibition at 0.01 µM was 40% and the inhibition at 0.1 µM came to 82%.
As to `Cc1ccc(-c2cccc3c(Cl)c([C@H](C)Nc4ncnc5[nH]ccc(=O)c45)n(-c4ccccc4)c(=O)c23)cc1` [Example 255, (S)-4-((1-(4-chloro-1-oxo-2-phenyl-8-(p-tolyl)-1,2-dihydroisoquinolin-3-yl)ethyl)amino)pyrido[2,3-d]pyrimidin-5(8H)-one], the inhibition at 0.01 µM in experiment [1] amounted to 25.1%; in experiment [2] it was 15.6%. In addition, the inhibition at 0.1 µM in experiment [1] came out at 50.9%; in experiment [2], 73.6%.
In the case of `C[C@H](Nc1ncnc2[nH]ccc(=O)c12)c1c(Cl)c2cccc(-c3ccc(C(F)(F)F)cc3Cl)c2c(=O)n1-c1ccccc1` [Example 256, (S)-4-((1-(4-chloro-8-(2-chloro-4-(trifluoromethyl)phenyl)-1-oxo-2-phenyl-1,2-dihydroisoquinolin-3-yl)ethyl)amino)pyrido[2,3-d]pyrimidin-5(8H)-one], in experiment [1], the inhibition at 0.01 µM came to 75% and the inhibition at 0.1 µM worked out at 100%. Further, in experiment [2], the inhibition at 0.01 µM came to 44% and the inhibition at 0.1 µM was found to be 77%.
For `Cc1ccc(-c2cccc3c(Cl)c([C@H](C)Nc4ncnc5[nH]ccc(=O)c45)n(-c4ccccc4)c(=O)c23)cn1` [Example 257, (S)-4-((1-(4-chloro-8-(6-methylpyridin-3-yl)-1-oxo-2-phenyl-1,2-dihydroisoquinolin-3-yl)ethyl)amino)pyrido[2,3-d]pyrimidin-5(8H)-one], in experiment [1], the inhibition at 0.01 µM is 68% and the inhibition at 0.1 µM is 98%. Also, in experiment [2], the inhibition at 0.01 µM stood at 75% and the inhibition at 0.1 µM came to 98%.
Consider `C[C@H](Nc1ncnc2[nH]ccc(=O)c12)c1c(Cl)c2cccc(-c3ccc[nH]3)c2c(=O)n1-c1ccccc1` [Example 258, (S)-4-((1-(4-chloro-1-oxo-2-phenyl-8-(1H-pyrrol-2-yl)-1,2-dihydroisoquinolin-3-yl)ethyl)amino)pyrido[2,3-d]pyrimidin-5(8H)-one], for which the inhibition at 0.01 µM was found to be 86% in experiment [1] and 13% in experiment [2]. Besides, the inhibition at 0.1 µM in experiment [1] turned out to be 101%; in experiment [2], 12%.
